Data taken from US20040241225A1, “Modulation of vitamin storage” (priority 2001, published 2004).

How the values were obtained:
[1] = format: physicochemical
Method: An extraction method was developed which gave the maximum recovery of TP. The stability of TP to the extraction methodology was tested by subjecting pure TP to the extraction protocol, virtually 100% recovery was obtained.

[2] = Solubility of α-tocopheryl phosphate; format: physicochemical
[3] = Liver TP level 24 h after a single dose of TP or tocopheryl acetate, quantitated by ESMS; conditions: rat, 24 h after administration

resistance to oxidation ([1]; conditions of the standard colorimetric α-tocopherol analysis): resistant to oxidation | solubility in water ([2]; high pH): soluble | solubility in organic solvents ([2]; low pH): soluble | liver TP ([3]; i.v., single dose 3 mg/kg): 17 ug ug/gm | liver TP ([3]; i.v., single dose 10 mg/kg): 24 ug ug/gm | liver TP ([3]; i.v., single dose 30 mg/kg): 28 ug ug/gm | liver TP ([3]; i.v., single dose 100 mg/kg): 27 ug ug/gm | liver TP ([3]; oral, single dose 10 mg/kg): 19.18 ug ug/gm | liver TP ([3]; oral, single dose 30 mg/kg): 18.35 ug ug/gm
Substance: α-tocopheryl phosphate [TP]
resistance to hydrolysis ([1]; alkaline and acid hydrolysis conditions of standard α-tocopherol extraction procedures): resistant to all of the alkaline and acid hydrolysis conditions | cleavage of the phosphate bond ([1]; refluxing under strongly alkaline or acidic conditions in excess of 24 hours): does not lead to any cleavage of the phosphate bond
